Results reported in patent US20240000950A1, “THERAPEUTIC CURE-PRO COMPOUNDS FOR TARGETED DEGRADATION OF BET DOMAIN PROTEINS, AND METHODS OF MAKING AND USING THEM” (CORNELL UNIVERSITY, priority 2020, published 2024).
“Also recorded” adds a separate entry of the source.

Legend:
Assay type in all cases: cell-based
BRD4 [1] = target: T1, BRD4 (Homo sapiens, UniProt O60885); assay: CURE-PRO-mediated BRD4 degradation in HeLa cells, Western blot; design: endogenous in cells; host or cells: HeLa; conditions: 24 h
Procedure: (§1) All cell lines were purchased from ATCC or DSMZ and grown at 37° C. with 5% C02. Human HeLa cells were cultured in complete growth medium (Dulbecco's modified Eagle's medium (DMEM) supplemented with 10% FBS); MCF7 cells were cultured in complete growth medium (Dulbecco's modified Eagle's medium (DMEM) supplemented with 10% FBS and 0.01 mg/ml human recombinant insulin (Sigma Aldrich); Namalwa and MOLM-13 cells were cultured in complete growth medium (RPMI 1640 medium supplemented with 10% FBS); MV-4-11 were cultured in complete growth medium (Iscove's Modified Dulbecco's medium, supplemented with 10% FBS); HCT116 cells were cultured in complete growth medium (McCoy's 5a Medium supplemented with 10% FBS). For cellular degradation of BRD4 studies, cells were seeded in a 12-well plate at 70-80% confluency, allowed to attach overnight, and incubated with the indicated compounds for the indicated time. When indicated, a 15-minute pretreatment with 10 μM pomalidomide, 10 μM VHL298, 10 μM Nutlin3a, 1 μM MG-132 or 1 μM Carfilzomib was performed before the addition of CURE-PROs. For washout studies, after CURE-PRO treatment, media was aspirated and incubated with complete medium for the indicated time before lysis.
Anti-BRD4 (13440, 1:1,000 dilution for Western Blot and 1:25 dilution for ProteinSimple); Anti-BRD2 (5848 1:1,000 dilution for Western Blot and 1:25 dilution for ProteinSimple); β-Actin (3700, 1:2,000 dilution for Western Blot), β-Actin (4970, 1:50 dilution for ProteinSimple) anti-mouse IgG-HRP, and anti-rabbit IgG-HRP antibodies were purchased Cell Signaling Technology. Anti-GAPDH (600-401-A33, 1:100 dilution for ProteinSimple) was purchased from Rockland Immunochemicals, Inc. Anti-BRD3 (sc-81202, 1:200 dilution for Western Blot) was purchased from Santa Cruz Biotechnology.
(§2) HeLa, MCF7, or HCT116 cells (2.5-3×10^6) were treated for 24 hours with the indicated compounds solubilized in DMSO. The cells were washed in ice-cold PBS and were then lysed in RIPA lysis buffer (150 mM NaCl, 5 mM EDTA, 1% NP-40, 0.5% sodium deoxycholate, 0.1% SDS, 50 mM Tris, pH 8.0) with Roche protease inhibitor complete cocktail and phosphatase inhibitors (10 mM sodium fluoride, 10 mM sodium pyrophosphate, 1 mM sodium orthovanadate and 20 mM β-glycerophosphate). The total protein concentrations were determined by Bradford Protein Assay and 10-20 μg of protein was loaded onto 4-15% Tris-Glycine gradient gels (Biorad). After standard gel electrophoresis, the separated proteins were transferred to PVDF membrane by wet transfer. The immunoblots were then blocked for 1 hour in 5% skim milk in TBST or 5% BSA in TBST, according to manufacturer's instructions, before an overnight incubation at 4° C. with indicated antibodies and membranes. Membranes were then incubated with the appropriate horseradish peroxidase-conjugated secondary antibodies (1:5,000 dilution) for 1 h at room temperature and the bands were visualized using the Clarity Max Western ECL Substrate (Biorad) and the ChemiDoc Imaging System (Biorad). Signal was detected with ECL Western Blotting Substrate (Pierce) and X-ray film processed with a Konica SRX-101 X-ray film processor or captured by Bio-Rad's Chemidoc Imaging system.
HeLa cells (2.5×10^6) were treated for 24 hours with the sample compounds solubilized in DMSO. Compounds were added at 1-10 μM each. Standardized protein samples were electrophoresed and imaged as described in the immunoblotting description above. FIGS. 6-18 depicts the CURE-PRO-mediated BRD4 degradation for BRD monomers (JQ1 derivatives comprising of catechol linkers), and CRBN ligands, 8048 and 8049 (pomalidomide derivatives comprising boronic acid linkers) combined in a 1:1 ratio.
HeLa cells (2.5×10^6) were treated for 24 hours with the compounds solubilized in DMSO. The compounds were added at 10 μM each. Standardized protein samples were electrophoresed and imaged as described in the immunoblotting section above. […]

BRD4 [2] = target: T1, BRD4; assay: Summary of E3 ligase directed degradation of BRD4, estimated from Western Blot or WES (Tables 1-6); design: endogenous in cells; host or cells: HeLa, MCF7 or HCT116; conditions: for Degradation of BRD4, combination with CRBN ligand [drawing 422] / Degradation of BRD4, combination with CRBN ligand [drawing 397] / Degradation of BRD4, combination with CRBN ligand [drawing 421]: Table 1; for Degradation of BRD4, combination with CRBN ligand [drawing 422]: CRBN ligand drawn as drawing 422 (by the text apparently 8066); for Degradation of BRD4, combination with CRBN ligand [drawing 397]: aromatic 1,2-diol- or hindered cis-1,2-diol-containing CRBN ligand drawn as drawing 397 (by the text apparently 8046); for Degradation of BRD4, combination with MDM2 ligand [drawing 431] / Degradation of BRD4, combination with MDM2 ligand [drawing 430]: Table 2; for Degradation of BRD4, combination with MDM2 ligand [drawing 431]: aromatic 1,2-diol-containing MDM2 ligand drawn as drawing 431 (by the text apparently 8314); for Degradation of BRD4, combination with CRBN ligand [drawing 421]: CRBN ligand drawn as drawing 421 (by the text apparently 8047); for Degradation of BRD4, combination with MDM2 ligand [drawing 430]: aromatic 1,2-diol-containing MDM2 ligand drawn as drawing 430 (by the text apparently 8313)
Procedure: as §2
WES Simple analysis was performed on WES system (ProteinSimple-Biotechne) according to the manufacturer's instructions. Total protein concentrations of cell lysates were determined by the Pierce BCA kit (Thermo Fisher). 3 μL of 0.3 μg/uL of the protein lysate was loaded onto a 12- to 230-kDa WES assay plate (ProteinSimple) where 300 nL sample was withdrawn through a capillary, subjected to electrophoretic separation of proteins by size, and followed by the simultaneous, HRP-based detection of proteins using the Anti-Rabbit Detection Module (Proteinsimple: #DM-001). The electropherograms were checked then the automatic peak detection was manually corrected if it was required.
A black check mark indicates efficacy of 30% to 70% or higher protein degradation.

MV-4-11 cells = assay: CellTiter-Glo cell viability, MV-4-11 cells
Procedure: as §1
CellTiter-Glo® 2.0 Cell Viability Assay (Promega) was carried out following the manufacturer's recommendations. Cells were seeded at a density of 1000 cells/well in a white 96 well plates (Corning, #3917) in a total volume of 100 μl with respective monomers, combinations of BRD ligands together with E3 ligase ligands or vehicle control treatment. After a 72 h incubation, 100 ul of the CellTiter-Glo® substrate was added per well and luminescence was read on a Spectramax M5 (Molecular Devices). Dose-response curves were generated using Graphpad Prism software.
MV-4-11 cells (5×104) were treated for 24 hours with the sample compounds solubilized in DMSO. The compounds were added at 1 nM-100 μM each. Cellular viability was determined using the CellTiter-Glo® Luminescent Cell Viability Assay (Promega) described above. FIGS. 19-22 depict the CURE-PRO-mediated loss of cellular viability for BRD monomers (JQ1 derivatives comprising of catechol linkers), and CRBN ligand, 8049 (pomalidomide derivatives comprising boronic acid linkers) combined in a 1:1 ratio.
MV-4-11 cells (1×104) were treated for 72 hours with the compounds solubilized in DMSO. Compounds were added at 10 nM-100 μM each. Cellular viability was determined using the CellTiter-Glo® Luminescent Cell Viability Assay (Promega) described above. FIGS. 47-54 depict the CURE-PRO-mediated loss of cellular viability for BRD monomers (JQ1 derivatives comprising of boronic acid linkers), and CRBN ligands, 8046, 8047, and 8066 (pomalidomide derivatives comprising diol linkers) combined in a 1:1 ratio.

[3] = 72 h, 10 nM-100 μM, cotreated 1:1 with each of CRBN ligands 8066, 8046 and 8047, compared to monomers alone

| SMILES | BRD4 degradation (BRD4 [1]; BRD ligand (monomer) alone) | Degradation of BRD4, combination with CRBN ligand [drawing 422] (BRD4 [2]) | Degradation of BRD4, combination with CRBN ligand [drawing 397] (BRD4 [2]) | Degradation of BRD4, combination with MDM2 ligand [drawing 431] (BRD4 [2]) | Degradation of BRD4, combination with CRBN ligand [drawing 421] (BRD4 [2]) | Degradation of BRD4, combination with MDM2 ligand [drawing 430] (BRD4 [2]) | toxicity / loss of cellular viability (CellTiter-Glo) (MV-4-11 cells; [3]) | also measured |
| --- | --- | --- | --- | --- | --- | --- | --- | --- |
| COc1ccc2c(c1)C(c1ccc(Cl)cc1)=N[C@@H](CC(=O)NCCCCCNC(=O)c1cccc(B(O)O)c1)c1nnc(C)n1-2 [BRD-E08] | no change in expression is observed | ✓ (A black check mark indicates efficacy of 30% to 70% or higher protein degradation) | ✓ (A black check mark indicates efficacy of 30% to 70% or higher protein degradation) | ✓ (A black check mark indicates efficacy of 30% to 70% or higher protein degradation) |  |  |  | BRD4 degradation (BRD4 [1]; co-treated 1:1 with CRBN ligand 8046, 10 μM each unless the value states a concentration, listed as BRD-E8): Degradation is observed at 100 nM and 1 μM |
| COc1ccc2c(c1)C(c1ccc(Cl)cc1)=N[C@@H](CC(=O)NCCc1ccc(O)c(O)c1)c1nnc(C)n1-2 [BRD-N10, (S)-2-(6-(4-chlorophenyl)-8-methoxy-1-methyl-4H-benzo[f][1,2,4]triazolo[4,3-a][1,4]diazepin-4-yl)-N-(3,4-dihydroxyphenethyl)acetamide] |  |  |  |  |  |  |  | Degradation of BRD4, combination with CRBN ligand [drawing 457] (BRD4 [2]; Table 4, aryl-boronic acid-containing CRBN ligand drawn as drawing 457 (by the text apparently 8048)): ✓ (A black check mark indicates efficacy of 30% to 70% or higher protein degradation); Degradation of BRD4, combination with CRBN ligand [drawing 458] (BRD4 [2]; Table 4, aryl-boronic acid-containing CRBN ligand drawn as drawing 458 (by the text apparently 8049)): ✓ (A black check mark indicates efficacy of 30% to 70% or higher protein degradation); Degradation of BRD4, combination with MDM2 ligand [drawing 463] (BRD4 [2]; Table 5, aryl-boronic acid-containing MDM2 ligand drawn as drawing 463 (apparently 8310)): ✓ (A black check mark indicates efficacy of 30% to 70% or higher protein degradation); toxicity / loss of cellular viability (CellTiter-Glo) (MV-4-11 cells; 1 nM-100 μM, cotreated 1:1 with CRBN ligand 8049): a concentration-dependent loss in cellular viability was observed; also recorded: increased toxicity |
| CCNC(=O)C[C@@H]1N=C(c2ccc(Cl)cc2)c2cc(OCCNC(=O)c3cccc(B(O)O)c3)ccc2-n2c(C)nnc21 [BRD-E21, (3-((2-(((4S)-6-(4-chlorophenyl)-4-(2-(ethylamino)-2-oxoethyl)-1-methyl-4H-benzo[f][1,2,4]triazolo[4,3-a][1,4]diazepin-8-yl)oxy)ethyl)carbamoyl)phenyl)boronic acid] | no change in expression is observed |  |  | ✓ (A black check mark indicates efficacy of 30% to 70% or higher protein degradation) | ✓ (A black check mark indicates efficacy of 30% to 70% or higher protein degradation) |  |  |  |
| CCNC(=O)C[C@@H]1N=C(c2ccc(Cl)cc2)c2cc(OCCCCCCNC(=O)c3ccc(B(O)O)cc3)ccc2-n2c(C)nnc21 [BRD-E79, (4-((6-(((4S)-6-(4-chlorophenyl)-4-(2-(ethylamino)-2-oxoethyl)-1-methyl-4H-benzo[f][1,2,4]triazolo[4,3-a][1,4]diazepin-8-yl)oxy)hexyl)carbamoyl)phenyl)boronic acid] | no change in expression is observed | ✓ (A black check mark indicates efficacy of 30% to 70% or higher protein degradation) | ✓ (A black check mark indicates efficacy of 30% to 70% or higher protein degradation) |  | ✓ (A black check mark indicates efficacy of 30% to 70% or higher protein degradation) | ✓ (A black check mark indicates efficacy of 30% to 70% or higher protein degradation) |  |  |
| CCNC(=O)C[C@@H]1N=C(c2ccc(Cl)cc2)c2cc(OCCCCC(=O)Nc3cccc(B(O)O)c3)ccc2-n2c(C)nnc21 [BRD-E20, (3-(5-(((4S)-6-(4-chlorophenyl)-4-(2-(ethylamino)-2-oxoethyl)-1-methyl-4H-benzo[f][1,2,4]triazolo[4,3-a][1,4]diazepin-8-yl)oxy)pentanamido)phenyl)boronic acid] |  | ✓ (A black check mark indicates efficacy of 30% to 70% or higher protein degradation) | ✓ (A black check mark indicates efficacy of 30% to 70% or higher protein degradation) | ✓ (A black check mark indicates efficacy of 30% to 70% or higher protein degradation) |  | ✓ (A black check mark indicates efficacy of 30% to 70% or higher protein degradation) | reduced viability; also recorded: increased toxicity | Degradation of BRD4, combination with VHL ligand [drawing 442] (BRD4 [2]; Table 3, aromatic 1,2-diol-containing VHL ligand drawn as drawing 442 (by the text apparently 8305)): ✓ (A black check mark indicates efficacy of 30% to 70% or higher protein degradation) |
| CCNC(=O)C[C@@H]1N=C(c2ccc(Cl)cc2)c2cc(Sc3cccc(B(O)O)c3)ccc2-n2c(C)nnc21 [BRD-E76] |  |  | ✓ (A black check mark indicates efficacy of 30% to 70% or higher protein degradation) |  |  |  | reduced viability; also recorded: increased toxicity |  |
